Test results reported in patent publication US5521088A, “Alcohol acetyltransferase genes and use thereof” (Kirin Beer Kabushiki Kaisha, priority 1992, dated 1996).
“Also recorded” adds a separate entry of the source. Read-outs that look alike come from different tables or passages of the source.

T1: AATase (Saccharomyces cerevisiae, UniProt P40353, N391K/T84I)
T1 construct: culturing yeast cells of Saccharomyces cerevisiae KYOKAI No. 7 and recovering and purifying the crude enzyme; endogenous in cells; host or cells: Saccharomyces cerevisiae KYOKAI No. 7 (sake yeast)
T1 sequence (P40353 1-525 T84I/N391K): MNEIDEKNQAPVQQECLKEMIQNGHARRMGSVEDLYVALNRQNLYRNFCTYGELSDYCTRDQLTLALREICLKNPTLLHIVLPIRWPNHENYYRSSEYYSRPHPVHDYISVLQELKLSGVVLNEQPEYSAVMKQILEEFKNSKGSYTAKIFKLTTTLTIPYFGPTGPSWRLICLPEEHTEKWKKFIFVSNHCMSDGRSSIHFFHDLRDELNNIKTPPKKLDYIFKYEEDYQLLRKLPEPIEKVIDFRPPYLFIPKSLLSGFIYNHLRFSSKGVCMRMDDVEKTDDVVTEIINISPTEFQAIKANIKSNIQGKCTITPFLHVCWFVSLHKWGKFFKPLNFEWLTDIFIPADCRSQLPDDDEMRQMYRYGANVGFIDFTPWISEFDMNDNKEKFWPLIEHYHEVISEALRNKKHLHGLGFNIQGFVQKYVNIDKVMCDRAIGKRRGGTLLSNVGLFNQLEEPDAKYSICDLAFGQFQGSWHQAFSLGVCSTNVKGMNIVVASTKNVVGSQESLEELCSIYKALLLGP


Experiments:
AATase [1] = molecular target: T1, AATase; assay: biochemical; type: biochemical
AATase [2] = molecular target: T1, AATase; assay: biochemical; conditions: read-out: Relative activity (%)
[3] = substrate: CC(=O)SCCNC(=O)CCNC(=O)[C@H](O)C(C)(C)COP(=O)(O)OP(=O)(O)OC[C@H]1O[C@@H](n2cnc3c(N)ncnc32)[C@H](O)[C@@H]1OP(=O)(O)O; assay: Km value of AATase to isoamyl alcohol and acetyl-CoA; type: biochemical, Saccharomyces cerevisiae; conditions: other: substrate of AATase; pH 7.5; 25.0 °C
Description: (§1) A 1 ml of a solution containing a buffer for AATase reaction (25 mM imidazole hydrochloride buffer (pH 7.5), 1 mM acetyl-CoA, 0.1% Triton X-100, 0.5% isoamyl alcohol, 1 mM dithiothreitol, 0.1M sodium chloride, 20% glycerol: or 10 mM phosphate buffer (pH 7.5), 1 mM acetyl-CoA, 0.1% Triton X-100, 0.5% isoamyl alcohol, 1 mM dithiothreitol, 0.1M sodium chloride, 20% glycerol) and the enzyme of the present invention was encapsulated into a 20 ml vial and reacted at 25° C. for 1 hour. After incubation, the vial was opened and the reaction was stopped by adding 0.6 g of sodium chloride. n-Butanol was added as an internal standard to the reaction mixture up to 50 ppm. The vial was capped with a teflon stopper. Then, the isoamyl acetate generated was determined with the head space gas chromatography (Shimadzu GC-9A, HSS-2A) under the following condition: […]

[4] = substrate: CC(C)CCO; assay: as above; type: biochemical, Saccharomyces cerevisiae; conditions: other: substrate of AATase; pH 7.5; 25.0 °C
Description: as §1

Molecule	activity at 2000 µM (AATase [2])	other results
c1cnc2c(c1)ccc1cccnc12 [1,10-phenanthroline]	–	activity at 1000 µM (AATase [1]; read-out: Relative activity (%)): 87.9%
O=C(O)c1cc(SSc2ccc([N+](=O)[O-])c(C(=O)O)c2)ccc1[N+](=O)[O-] [DTNB, Dithiobis(2nitrobenzoic acid)]	–	Relative activity (%) (AATase [1]; inhibitor 0.1 mM per footnote (head: 1 mM), None = 100): 0%
CCCCC/C=C\C/C=C\CCCCCCCC(=O)O [Linoleic acid]	4.3%	–
CC/C=C\C/C=C\C/C=C\CCCCCCCC(=O)O [Linolenic acid]	32%	–
CCCCCCCCCCCCCC(=O)O [Myristic acid]	60.5%	–
CCCCCCCC/C=C\CCCCCCCC(=O)O [Oleic acid]	59.6%	–
O=C(O)c1cc[c]([Hg][Cl])cc1 [PCMB, pChloromercuribenzoic acid]	–	Inhibition of the enzyme (in words) (AATase [1]): inhibited strongly; also recorded: intensively inhibited; Relative activity (%) (AATase [1]): 0%
O=S(=O)(F)Cc1ccccc1 [PMSF, Phenylmethanesulfonyl fluoride]	–	Relative activity (%) (AATase [1]): 70.2%
CCCCCCCCCCCCCCCC(=O)O [Palmitic acid]	88.1%	–
CCCCCC/C=C\CCCCCCCC(=O)O [Palmitoleic acid]	16.7%	–
CCCCCCCCCCCCCCCCCC(=O)O [Stearic acid]	80.5%	–
AATase (Saccharomyces cerevisiae S288C; N391K/T84I) (protein, culturing yeast cells of Saccharomyces cerevisiae KYOKAI No. 7 and recovering and purifying the crude enzyme; endogenous in cells; host or cells: Saccharomyces cerevisiae KYOKAI No. 7 (sake yeast)) MNEIDEKNQAPVQQECLKEMIQNGHARRMGSVEDLYVALNRQNLYRNFCTYGELSDYCTRDQLTLALREICLKNPTLLHIVLPIRWPNHENYYRSSEYYSRPHPVHDYISVLQELKLSGVVLNEQPEYSAVMKQILEEFKNSKGSYTAKIFKLTTTLTIPYFGPTGPSWRLICLPEEHTEKWKKFIFVSNHCMSDGRSSIHFFHDLRDELNNIKTPPKKLDYIFKYEEDYQLLRKLPEPIEKVIDFRPPYLFIPKSLLSGFIYNHLRFSSKGVCMRMDDVEKTDDVVTEIINISPTEFQAIKANIKSNIQGKCTITPFLHVCWFVSLHKWGKFFKPLNFEWLTDIFIPADCRSQLPDDDEMRQMYRYGANVGFIDFTPWISEFDMNDNKEKFWPLIEHYHEVISEALRNKKHLHGLGFNIQGFVQKYVNIDKVMCDRAIGKRRGGTLLSNVGLFNQLEEPDAKYSICDLAFGQFQGSWHQAFSLGVCSTNVKGMNIVVASTKNVVGSQESLEELCSIYKALLLGP	–	Km [3]: 0.19 mM; Km [4]: 29.8 mM
